Data published in publication PMC8426472 (Molecular Therapy. Methods & Clinical Development, 2021).

Assays:
[1] = cited from earlier work
GS-GDNF vector = experiment: Striatal GDNF induction from AAV-5-GS-GDNF vector after Mfp application; format: in vivo, rat
[2] = Plasma Mfp levels in cynomolgus monkeys; format: in vivo, cynomolgus macaques (Macaca fascicularis)
[3] = cited from earlier work; remark: listed apart in the source
[4] = Brain Mfp levels in cynomolgus monkeys; format: in vivo, cynomolgus macaques (Macaca fascicularis); details: monkey #1 versus monkeys #2 and #3, repeated oral Rtv 60 mg/kg + Mfp 100 mg/kg
[5] = Plasma Mfp levels in rats; format: in vivo, rat
ORM1F2 = details: cited from earlier work
[6] = cited from earlier work; remark: listed apart in the source
[7] = system: ORM2-derived AAG variants; details: cited from earlier work
ORM1S = details: cited from earlier work
[8] = Plasma Mfp levels in hAAG-expressing; format: in vivo, rat
[9] = cited from earlier work; remark: listed apart in the source
ORM1F1 = details: cited from earlier work
[10] = Brain tissue Mfp levels in rats; format: in vivo, rat; details: 3 × 20 mg/kg i.p., t = 144 h
[11] = cited from earlier work; remark: listed apart in the source

CC(C)c1nc(CN(C)C(=O)N[C@H](C(=O)N[C@@H](Cc2ccccc2)C[C@H](O)[C@H](Cc2ccccc2)NC(=O)OCc2cncs2)C(C)C)cs1 [Rtv, ritonavir]
metabolic effects: insulin resistance [1]: moderate increase
boost of GDNF induction by Rtv, female rats (GS-GDNF vector; female rats, Rtv 30 mg/kg i.p. + 3 x 5 mg/kg Mfp i.p.): about 10 fold
boost of GDNF induction by Rtv, male rats (GS-GDNF vector; male rats, Rtv 30 mg/kg i.p. + 3 x 5 mg/kg Mfp i.p.): about 40 fold

CC#C[C@]1(O)CC[C@H]2[C@@H]3CCC4=CC(=O)CCC4=C3[C@@H](c3ccc(N(C)C)cc3)C[C@@]21C [Mfp, mifepristone]
peak plasma Mfp level without Rtv ([2]; male cynomolgus monkeys, single oral 50 mg/kg Mfp): 55 ng/mL
peak plasma Mfp level with Rtv co-application ([2]; male cynomolgus monkeys, single oral 50 mg/kg Mfp + 30 mg/kg Rtv): 150 ng/mL
AUC ([2]; male, cynomolgus monkey, plasma, po, 50 mg/kg): 655 ng·h/mL
plasma Mfp levels on all 3 days ([2]; monkeys #2 and #3, oral Mfp 100 mg/kg + Rtv 60 mg/kg on 3 consecutive days): exceeding 500 ng/mL
bioavailability in humans [3]: 40%
clearance in human [3]: 0.04 L/h/kg body weight
plasma half-life (T1/2) in human [3]: 30 h
difference in brain Mfp levels after the same dosage [4]: 6- to 7 fold
AUC ([5]; female, Wistar, rat, plasma, ip, AUC for plasma Mfp, − Rtv, female rats, 3 x 5 mg/kg Mfp i.p., without Rtv): 8200 ng·h/mL
drop of plasma Mfp levels at 48 h, native rats ([5]; native rats, single oral dose 50 mg/kg): over 80%
peak plasma levels ([5]; rats, 3 × 5 mg/kg Mfp i.p.): about 150 ng/mL
peak plasma levels, corresponding molar concentration ([5]; rats, 3 × 5 mg/kg Mfp i.p.): about 0.3 μM
binding of Mfp by ORM1F2 (ORM1F2): only low affinity
solubility in water [6]: very low
binding of Mfp by ORM2-derived AAG variants [7]: only weakly
binding of Mfp by ORM1S (ORM1S): high affinity
plasma Mfp levels in hAAG-expressing vs native animals at 50 h and 72 h ([8]; 3 × 20 mg/kg Mfp i.p.): significantly elevated
plasma Mfp level at 48 h, hAAG-expressing rats ([8]; single oral dose 50 mg/kg): still at maximum level
plasma Mfp level at 72 h, hAAG-expressing rats ([8]; single oral dose 50 mg/kg): about one-third of maximum levels
bioavailability in monkeys [9]: 15%
binding of Mfp by ORM1F1 (ORM1F1): high affinity
Mfp levels in brain tissue, native vs hAAG-expressing animals [10]: equal
effect of hAAG on GS-GDNF activation at lower dosage (GS-GDNF vector; 3 × 5 mg/kg Mfp i.p., hAAG-expressing vs native rats): no negative effect
striatal GDNF levels in hAAG-expressing vs native animals (GS-GDNF vector; 3 × 20 mg/kg Mfp i.p.): similar
induced GDNF levels in aged (15 months) as compared to young (2 months) animals (GS-GDNF vector; female and male rats, 3 × 20 mg/kg Mfp i.p.): 7–8 times
striatal GDNF level, only Mfp, females (GS-GDNF vector; female rats, 3 x 5 mg/kg Mfp i.p., no Rtv): about 350 pg/mg
striatal GDNF level without Rtv co-application (GS-GDNF vector; female rats, 3 x 20 mg/kg Mfp i.p.): about 2,000 pg/mg tissue
striatal GDNF level after co-application of Rtv (GS-GDNF vector; female rats, 3 x 20 mg/kg Mfp i.p., Rtv 30 mg/kg i.p. or orally): about 4,000 pg/mg tissue
GDNF levels obtained with different solvent/carrier (GS-GDNF vector; female rats, oral 3 x 50 mg/kg pure substance in EtOH, sesame oil or ASV): very similar
striatal GDNF level, Mfp + Rtv (GS-GDNF vector; male and female rats, 3 x 5 mg/kg Mfp i.p. + Rtv 30 mg/kg i.p.): about 4,000 pg/mg tissue
striatal GDNF level, only Mfp, males (GS-GDNF vector; male rats, 3 x 5 mg/kg Mfp i.p., no Rtv): about 100 pg/mg
bioavailability in rats [11]: 40%
clearance in rats [11]: 2.7 L/h/kg body weight
plasma half-life (T1/2) in rats [11]: 4 h
